# Data published in ChEMBL document CHEMBL4177602, “Zaluzanin C (ZC) induces osteoblast differentiation through regulating of osteogenic genes expressions in early stage of differentiation” (Bioorg Med Chem Lett, 2017).
# Activity calls are given as the source filed them. The calls are words filed in the database; no cut-off is given here.
# How the values were obtained:
# MC3T3-E1 [1] = test: Induction of osteoblast differentiation in mouse MC3T3-E1 cells assessed as increase in Dlx5 mRNA expression at 5 uM after 2 days by qPCR analysis; format: functional, cell-based
# MC3T3-E1 [2] = test: Induction of osteoblast differentiation in mouse MC3T3-E1 cells assessed as increase in Dlx5 mRNA expression at 5 uM after 2 days by RT-PCR analysis; format: functional, cell-based
# C3H 10T1/2 [3] = test: Cytotoxicity against mouse C3H10T1/2 cells assessed as reduction in cell viability at 1 to 5 uM after 24 hrs by MTT assay; format: cell-based; settings: c3h 10t1/2, 24 h
# C3H 10T1/2 [4] = test: Induction of osteoblast differentiation in mouse C3H10T1/2 cells assessed as increase in Id1 mRNA expression at 5 uM after 2 days by qPCR analysis; format: functional, cell-based
# MC3T3-E1 [5] = test: Induction of osteoblast differentiation in mouse MC3T3-E1 cells assessed as increase in Id1 mRNA expression at 5 uM after 2 days by RT-PCR analysis; format: functional, cell-based
# MC3T3-E1 [6] = test: Induction of osteoblast differentiation in mouse MC3T3-E1 cells assessed as increase in Runx2 protein level at 5 uM after 2 days by Western blot analysis; format: functional, cell-based
# MC3T3-E1 [7] = test: Induction of osteoblast differentiation in mouse MC3T3-E1 cells assessed as increase in ALP activity at 5 uM after 4 days BCIP/NBT liquid substrate based assay; format: functional, cell-based
# MC3T3-E1 [8] = test: Cytotoxicity against mouse MC3T3-E1 cells assessed as reduction in cell viability at 1 to 5 uM after 24 hrs by MTT assay; format: cell-based; settings: mc3t3-e1, 24 h
# MC3T3-E1 [9] = test: Cytotoxicity against mouse MC3T3-E1 cells assessed as reduction in cell viability at >10 uM after 24 hrs by MTT assay; format: cell-based; settings: mc3t3-e1, 24 h
# C3H 10T1/2 [10] = test: Induction of osteoblast differentiation in mouse C3H10T1/2 cells assessed as increase in Runx2 mRNA expression at 5 uM after 2 days by qPCR analysis; format: functional, cell-based
# MC3T3-E1 [11] = test: Induction of osteoblast differentiation in mouse MC3T3-E1 cells assessed as increase in Runx2 mRNA expression at 5 uM after 2 days by qPCR analysis; format: functional, cell-based
# C3H 10T1/2 [12] = test: Induction of osteoblast differentiation in mouse C3H10T1/2 cells assessed as increase in Runx2 protein level at 5 uM after 2 days by Western blot analysis; format: functional, cell-based
# MC3T3-E1 [13] = test: Increase in Runx2 (unknown origin) promoter activity expressed in mouse MC3T3-E1 cells at 5 uM after 48 hrs by luciferase reporter gene assay; format: cell-based
# C3H 10T1/2 [14] = test: Induction of osteoblast differentiation in mouse C3H10T1/2 cells assessed as increase in Id1 mRNA expression at 5 uM after 2 days by RT-PCR analysis; format: functional, cell-based
# MC3T3-E1 [15] = test: Induction of osteoblast differentiation in mouse MC3T3-E1 cells assessed as increase in ALP activity at 5 uM after 4 days in presence of ascorbic acid/beta-GP BCIP/NBT liquid substrate based assay; format: functional, cell-based
# C3H 10T1/2 [16] = test: Cytotoxicity against mouse C3H10T1/2 cells assessed as reduction in cell viability at >10 uM after 24 hrs by MTT assay; format: cell-based; settings: c3h 10t1/2, 24 h
# C3H 10T1/2 [17] = test: Induction of osteoblast differentiation in mouse C3H10T1/2 cells assessed as increase in Runx2 mRNA expression at 5 uM after 2 days by RT-PCR analysis; format: functional, cell-based
# MC3T3-E1 [18] = test: Induction of osteoblast differentiation in Runx2 knockdown mouse MC3T3-E1 cells assessed as increase in ALP activity at 5 uM after 4 days BCIP/NBT liquid substrate based assay; format: functional, cell-based
# MC3T3-E1 [19] = test: Induction of osteoblast differentiation in mouse MC3T3-E1 cells assessed as increase in Runx2 mRNA expression at 5 uM after 2 days by RT-PCR analysis; format: functional, cell-based
# MC3T3-E1 [20] = test: Induction of osteoblast differentiation in mouse MC3T3-E1 cells assessed as increase in Id1 mRNA expression at 5 uM after 2 days by qPCR analysis; format: functional, cell-based
# C3H 10T1/2 [21] = test: Induction of osteoblast differentiation in mouse C3H10T1/2 cells assessed as increase in Dlx5 mRNA expression at 5 uM after 2 days by RT-PCR analysis; format: functional, cell-based
# MC3T3-E1 [22] = test: Induction of mineralization in mouse MC3T3-E1 cells at 5 uM after 14 days by alizarin red S staining based assay; format: functional, cell-based
# MC3T3-E1 [23] = test: Induction of mineralization in mouse MC3T3-E1 cells at 5 uM after 14 days in presence of ascorbic acid/beta-GP by alizarin red S staining based assay; format: functional, cell-based
# C3H 10T1/2 [24] = test: Induction of osteoblast differentiation in mouse C3H10T1/2 cells assessed as increase in Dlx5 mRNA expression at 5 uM after 2 days by qPCR analysis; format: functional, cell-based
# [25] = Increase in Runx2 (unknown origin) promoter activity expressed in mouse C3H10T1/2 cells at 5 uM after 48 hrs by luciferase reporter gene assay; format: cell-based
compound,measurement,setting,value
C=C1[C@@H]2[C@H]3OC(=O)C(=C)[C@@H]3CCC(=C)[C@@H]2C[C@@H]1O [ZALUZANIN C],Activity,MC3T3-E1 [1],Active
same,Activity,MC3T3-E1 [2],Active
same,Activity,C3H 10T1/2 [3],Non-Toxic
same,Activity,C3H 10T1/2 [4],Active
same,Activity,MC3T3-E1 [5],Active
same,Activity,MC3T3-E1 [6],Active
same,Activity,MC3T3-E1 [7],Active
same,Activity,MC3T3-E1 [8],Non-Toxic
same,Activity,MC3T3-E1 [9],Toxic
same,Activity,C3H 10T1/2 [10],Active
same,Activity,MC3T3-E1 [11],Active
same,Activity,C3H 10T1/2 [12],Active
same,Activity,MC3T3-E1 [13],Active
same,Activity,C3H 10T1/2 [14],Active
same,Activity,MC3T3-E1 [15],Active
same,Activity,C3H 10T1/2 [16],Toxic
same,Activity,C3H 10T1/2 [17],Active
same,Activity,MC3T3-E1 [18],inactive
same,Activity,MC3T3-E1 [19],Active
same,Activity,MC3T3-E1 [20],Active
same,Activity,C3H 10T1/2 [21],Active
same,Activity,MC3T3-E1 [22],Active
same,Activity,MC3T3-E1 [23],Active
same,Activity,C3H 10T1/2 [24],Active
same,Activity,[25],Active
